Data on one compound can be found in patent publication US12478574B2, “Oral care compositions” (Colgate-Palmolive Company, priority 2016, dated 2025).

Structures are written as SMILES.

The data set in a line: Atomic Absorption analysis of top and bottom layers for Zn2+. It counts as physicochemical. Particulars: overall 1% ZnCl2 (4800 ppm). How it is done: Results are similar with Zn^2+ as the cation. […] The concentration of Zn^2+ in the top layer was measured as 1400 ppm Zn^2+ while the bottom was 8800 ppm, i.e., 6.3 fold higher concentration vs. the top.

On to `[Cl-].[Cl-].[Zn+2]` [ZnCl2], for which the “Zn2+ concentration, bottom vs. the top” value is listed as 6.3 fold; the “concentration of Zn2+ in the bottom layer” value turned out to be 8800 ppm; the “concentration of Zn2+ in the top layer” value came to 1400 ppm.
